Laboratory results: US7214539B2, “Scintillation proximity test” (GE Healthcare Limited, priority 1997, dated 2007)

How the values were obtained:
[1] = target: T1, HIV reverse transcriptase (Human immunodeficiency virus type 1 group M subtype B, UniProt P04585); assay: Reverse transcriptase enzyme SPA assay (conventional SPA, streptavidin PVT SPA beads); assay type: biochemical
T1 construct: 0.05 units of HIV reverse transcriptase (Amersham T3610Y); purchased Amersham T3610Y
Source text: The reverse transcriptase enzyme SPA assay (Amersham NK8972) is a homogeneous assay system which uses a biotinylated DNA/RNA oligonucleotide enzyme substrate which is captured on streptavidin PVT SPA beads for quantification. […]

[2] = target: T1, HIV reverse transcriptase; assay: Reverse transcriptase inhibition assay with streptavidin-coated polystyrene europium beads and CCD imaging; assay type: biochemical
Protocol: The reverse transcriptase enzyme SPA assay (Amersham NK8972) is a homogeneous assay system which uses a biotinylated DNA/RNA oligonucleotide enzyme substrate which is captured on streptavidin PVT SPA beads for quantification. In this assay, streptavidin-coated organic chelate beads prepared from polystyrene (PST) containing europium were used and the inhibition of reverse transcriptase by aurintricarboxylic acid determined.
Biotinylated, ready annealed primer/template was added to the wells of a white microplate. This was followed by [^3H]TTP (Amersham TRK576) in 127 nM mixture of dATP, dCTP, dGTP, and TTP buffered in tris/HCl pH 8.0, 80 mM KCl, 10 mM MgCl2, 10 mM DTT and 0.05% w/v Nonidet P40. Aurintricarboxylic acid at concentrations between 0.05 and 1 μM was added and the reactions were initiated by the addition of 0.05 units of HIV reverse transcriptase (Amersham T3610Y). Plates were incubated at 37° C. for 20 minutes and were terminated with the addition of stop reagent. 0.1 mg of streptavidin coated PST beads was added and the plates were incubated overnight at room temperature. The signal generated was detected using the CCD imaging system.

O=C(O)C1=CC(=C(c2ccc(O)c(C(=O)O)c2)c2ccc(O)c(C(=O)O)c2)C=CC1=O [aurintricarboxylic acid]
IC50 [1]: 0.18 µM
IC50 [2]: 0.23 µM
inhibition of reverse transcriptase activity ([2]; 1 μM of inhibitor, PST beads, CCD imaging): 85%
